Data on 66 compounds can be found in ChEMBL document CHEMBL1152205, “Dihydropyrazolopyrimidine inhibitors of K(V)1.5 (I(Kur))” (Bioorg Med Chem Lett, 2008).

Common to all, as to format: cell-based
For assay [1], the target named is T1, Potassium voltage-gated channel subfamily A member 5 (Homo sapiens, UniProt P22460). In words: Inhibition of human Kv1.5 channel expressed in mouse L929 cells by EP voltage clamp technique.
The target in assay [2] is T1, Potassium voltage-gated channel subfamily A member 5. Briefly: Inhibition of human Kv1.5 channel expressed in Xenopus oocytes at 3 uM by EP voltage clamp technique. The following applies: Oocyte.
Assay [3] has the same target. Briefly: Inhibition of human Kv1.5 channel expressed in Xenopus oocytes at 10 uM by EP voltage clamp technique. The following applies: Oocyte.
Assay [4] in a line: Inhibition of L-type calcium channel expressed in HEK293 cells.

T1 sequence (P22460 whole entry): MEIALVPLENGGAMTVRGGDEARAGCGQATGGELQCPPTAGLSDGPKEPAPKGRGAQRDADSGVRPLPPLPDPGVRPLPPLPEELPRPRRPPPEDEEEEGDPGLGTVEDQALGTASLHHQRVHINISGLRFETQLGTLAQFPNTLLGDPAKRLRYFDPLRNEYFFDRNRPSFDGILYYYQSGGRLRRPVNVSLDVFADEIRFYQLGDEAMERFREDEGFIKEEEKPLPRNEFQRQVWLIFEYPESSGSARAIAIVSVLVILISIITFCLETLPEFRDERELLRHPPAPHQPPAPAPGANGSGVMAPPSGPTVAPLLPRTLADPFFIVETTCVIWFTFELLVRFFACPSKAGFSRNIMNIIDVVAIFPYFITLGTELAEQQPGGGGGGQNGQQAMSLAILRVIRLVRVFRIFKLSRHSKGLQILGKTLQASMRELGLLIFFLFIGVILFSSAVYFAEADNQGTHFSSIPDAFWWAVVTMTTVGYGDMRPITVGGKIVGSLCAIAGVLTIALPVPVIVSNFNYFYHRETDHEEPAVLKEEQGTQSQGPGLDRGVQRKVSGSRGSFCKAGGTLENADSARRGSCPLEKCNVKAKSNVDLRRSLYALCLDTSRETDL

Regarding `CC1=C(C(=O)N2CCN(c3ccc(F)cc3)CC2)C(c2cccc(C)c2)n2nccc2N1` (stereo not drawn), the concentration for half-maximal inhibition (IC50) in assay [1] turned out to be 540 nM. Further, the inhibition in assay [2] came to 57%. In assay [2], `COc1cccc(C2C(C(=O)N3CCN(c4ccc(F)cc4)CC3)=C(C)Nc3ccnn32)c1` (stereo not drawn) registered an inhibition of 30%. On to `CC1=C(C(=O)N2CCN(c3ccc(F)cc3)CC2)C(c2cc3ccccc3o2)n2nccc2N1` (stereo not drawn), for which, in assay [1], inhibition was half-maximal at 160 nM (IC50). Further, the inhibition in assay [2] is 33%. The compound `CC1=C(C(=O)N2CCC(c3ccccc3)CC2)C(c2ccc(Cl)c(Cl)c2)n2nccc2N1` (stereo not drawn) had an IC50 in assay [1] of 159 nM. Also, the inhibition in assay [2] came to 59%. In assay [2], `CC1=C(C(=O)N2CCN(C)CC2)C(c2ccc(Cl)c(Cl)c2)n2nccc2N1` (stereo not drawn) had an inhibition of 5%. With `CC1=C(C(=O)N2CCN(c3ccc(F)cc3)CC2)C(c2cccc([N+](=O)[O-])c2)n2nccc2N1` (stereo not drawn), the inhibition in assay [2] was 15%. On to `CC1=C(C(=O)N2CCCCCC2)C(c2ccc(Cl)c(Cl)c2)n2nccc2N1` (stereo not drawn), for which, in assay [1], it took 190 nM to reach half-maximal inhibition (IC50). Moreover, the inhibition in assay [2] amounted to 90%. Regarding `CC1=C(C(=O)N2CCN(c3ccc(F)cc3)CC2)C(c2ccc(Cl)cc2Cl)n2nccc2N1` (stereo not drawn), half-maximal inhibition in assay [1] (IC50) was put at 280 nM. The compound further gave an inhibition in assay [2] of 50%. For `CC1=C(C(=O)N2CCN(c3ccc(F)cc3)CC2)C(c2sc3ccccc3c2C)n2nccc2N1` (stereo not drawn) the same measures were 200 nM and 56%.

`CC1=C(C(=O)N2CCN(c3ccc(F)cc3)CC2)C(c2ccc3ccccc3n2)n2nccc2N1` (stereo not drawn) had an inhibition in assay [2] of 29%.

In assay [2], `CC1=C(C(=O)N2CCN(c3ccc(F)cc3)CC2)C(c2ccccc2Cl)n2nccc2N1` (stereo not drawn) came in with an inhibition of 30%. `CCCCCN(CCCCC)C(=O)C1=C(C)Nc2ccnn2C1c1ccc(Cl)c(Cl)c1` (stereo not drawn) returned an IC50 in assay [1] of 580 nM. This compound had an inhibition in assay [2] of 69%. On to `CC1=C(C(=O)N2CCN(c3ccc(F)cc3)CC2)[C@H](c2ccc(Cl)c(Cl)c2)n2nccc2N1`, for which, in assay [2], the inhibition stood at 19%.

In assay [2], `Cc1nc2ccnn2c(-c2cccc(Cl)c2Cl)c1C(=O)N1CCN(c2ccc(F)cc2)CC1` had an inhibition of 17%. The compound `CC1=C(C(=O)N2CCCCC2)C(c2ccc(Cl)c(Cl)c2)n2nccc2N1` (stereo not drawn) gave a concentration for half-maximal inhibition (IC50) in assay [1] of 90 nM. The compound also displayed an inhibition in assay [2] of 77%. For the compound `CC1=C(C(=O)N2CCN(c3ccc(F)cc3)CC2)C(c2ccc(C)c(C)c2)n2nccc2N1` (stereo not drawn), the IC50 in assay [1] turned out to be 750 nM. In assay [2], this compound had an inhibition of 34%. For `CC1=C(C(=O)N2CCC2)C(c2ccc(Cl)c(Cl)c2)n2nccc2N1` (stereo not drawn) the same measures were 970 nM and 52%. As to `CC1=C(C(=O)N2CCN(c3ccc(F)cc3)CC2)[C@H](c2cccc(Cl)c2Cl)n2nccc2N1`, in assay [2], the inhibition was found to be 2%. Regarding `CC1=C(C(=O)N2CCN(c3ccc(F)cc3)CC2)C(c2cccc(Cl)c2Cl)n2nccc2N1` (stereo not drawn), in assay [1], the IC50 worked out at 160 nM. For the same compound, the inhibition in assay [2] came out at 72%.

`CC1=C(C(=O)N2CCN(c3ccc(F)cc3)CC2)C(c2ccc(Cl)s2)n2nccc2N1` (stereo not drawn) came in with an IC50 in assay [1] of 230 nM. The same compound yielded an inhibition in assay [2] of 51%. `CC1=C(C(=O)N2CCN(c3ccc(F)cc3)CC2)C(c2cccs2)n2nccc2N1` (stereo not drawn): the inhibition in assay [2] came out at 7%.

In assay [1], `CC1=C(C(=O)NCCc2ccccc2)C(c2ccc(Cl)c(Cl)c2)n2nccc2N1` (stereo not drawn) displayed an IC50 of 100 nM. This compound gave an inhibition in assay [3] of 84%. Compound `COc1ccccc1C1C(C(=O)N2CCN(c3ccc(F)cc3)CC2)=C(C)Nc2ccnn21` (stereo not drawn) gave an inhibition in assay [2] of 2%.

As to `COc1cccc(C2C(C(=O)N3CCN(c4ccc(F)cc4)CC3)=C(C)Nc3ccnn32)c1OC` (stereo not drawn), in assay [2], the inhibition worked out at 7%. `CC1=C(C(=O)N2CCN(c3ccc(F)cc3)CC2)C(c2cccnc2)n2nccc2N1` (stereo not drawn): in assay [2], the inhibition was 3%. On to `CC1=C(C(=O)N2CCN(c3ccc(F)cc3)CC2)C(c2ccc(Cl)c(Cl)c2)n2nccc2N1` (stereo not drawn), for which half-maximal inhibition in assay [1] (IC50) was put at 120 nM. Moreover, the inhibition in assay [2] was determined as 65%. For `CC1=C(C(=O)N2CCN(c3ccc(F)cc3)CC2)C(c2ccc(C)cc2)n2nccc2N1` (stereo not drawn), the inhibition in assay [2] was 27%. As for `CC1=C(C(=O)N2CCN(c3ccc(F)cc3)CC2)C(c2ccc(C#N)cc2)n2nccc2N1` (stereo not drawn), the inhibition in assay [2] is 14%.

In assay [1], `COC[C@@H]1CCCN1C(=O)C1=C(C)Nc2ccnn2C1c1ccc(Cl)c(Cl)c1` (stereo partly drawn) had an IC50 of 200 nM. The compound further showed an inhibition in assay [2] of 88%. As to `COc1ccc(C2C(C(=O)N3CCN(c4ccc(F)cc4)CC3)=C(C)Nc3ccnn32)cc1` (stereo not drawn), the inhibition in assay [2] worked out at 11%. `Cc1nc2ccnn2c(-c2ccc(Cl)c(Cl)c2)c1C(=O)N1CCCCC1` displayed an inhibition in assay [2] of 17%.

`CC1=C(C(=O)N2CCN(c3ccc(F)cc3)CC2)C(c2cccc(Cl)c2)n2nccc2N1` (stereo not drawn) gave an IC50 in assay [1] of 190 nM. The compound also yielded an inhibition in assay [2] of 68%. Turning to `COc1ccc(C2C(C(=O)N3CCN(c4ccc(F)cc4)CC3)=C(C)Nc3ccnn32)cc1OC` (stereo not drawn), in assay [2], the inhibition was found to be 1%.

`CCCNC(=O)C1=C(C)Nc2ccnn2C1c1ccc(Cl)c(Cl)c1` (stereo not drawn) came in with an IC50 in assay [1] of 490 nM. Take `CC1=C(C(=O)N2CCN(c3ccc(F)cc3)CC2)C(c2ccccc2[N+](=O)[O-])n2nccc2N1` (stereo not drawn): the inhibition in assay [2] was determined as 4%. `CC1=C(C(=O)NCc2ccccc2)C(c2ccc(Cl)c(Cl)c2)n2nccc2N1` (stereo not drawn) yielded an IC50 in assay [1] of 160 nM. Further, the inhibition in assay [2] came to 62%. `CC1=C(C(=O)N2CCN(c3ccc(F)cc3)CC2)C(c2ccc3c(c2)OCO3)n2nccc2N1` (stereo not drawn) registered an inhibition in assay [2] of 26%. On to `CC1=C(C(=O)N2CCN(c3ccc(F)cc3)CC2)C(c2cc(Cl)ccc2Cl)n2nccc2N1` (stereo not drawn), for which the IC50 in assay [1] turned out to be 820 nM. This compound yielded an inhibition in assay [2] of 41%. `CCCN(CCC)C(=O)C1=C(C)Nc2ccnn2C1c1ccc(Cl)c(Cl)c1` (stereo not drawn) showed a 50% inhibitory concentration (IC50) in assay [1] of 70 nM. Also, the inhibition in assay [2] was 72%. Consider `CC1=C(C(=O)N2CCN(c3ccc(F)cc3)CC2)C(c2ccc([N+](=O)[O-])cc2)n2nccc2N1` (stereo not drawn), for which the inhibition in assay [2] is 24%. With `CC1=C(C(=O)N2CCN(c3ccc(F)cc3)CC2)C(c2ccccc2)n2nccc2N1` (stereo not drawn), the inhibition in assay [2] turned out to be 24%. Turning to `CCCCN(CCCC)C(=O)C1=C(C)Nc2ccnn2C1c1ccc(Cl)c(Cl)c1` (stereo not drawn), the IC50 in assay [1] turned out to be 310 nM. Besides, the inhibition in assay [2] turned out to be 45%. In the case of `COC[C@H]1CCCN1C(=O)C1=C(C)Nc2ccnn2C1c1ccc(Cl)c(Cl)c1` (stereo partly drawn), the inhibition in assay [2] turned out to be 39%. On to `CC1=C(C(=O)N2CCN(c3ccc(F)cc3)CC2)C(c2sccc2C)n2nccc2N1` (stereo not drawn), for which the inhibition in assay [2] was found to be 29%. In assay [2], `CC1=C(C(=O)N2CCN(c3ccc(F)cc3)CC2)C(c2ccc(C)s2)n2nccc2N1` (stereo not drawn) yielded an inhibition of 1%.

Regarding `CC1=C(C(=O)N2CCN(c3ccc(F)cc3)CC2)C(c2ccc(C)o2)n2nccc2N1` (stereo not drawn), the inhibition in assay [2] was found to be 7%. Still for that read-out and setting: the same measure for `CC1=C(C(=O)N2CCN(c3ccc(F)cc3)CC2)C(c2cccc3c2OCO3)n2nccc2N1` (stereo not drawn): 18%. Same read-out and setting: the same measure for `CC1=C(C(=O)N2CCN(c3ccc(F)cc3)CC2)C(c2cnc3ccccc3c2)n2nccc2N1` (stereo not drawn): 17%. `CC1=C(C(=O)N2CCN(c3ccc(F)cc3)CC2)C(c2cc(C)cc(C)c2)n2nccc2N1` (stereo not drawn): the IC50 in assay [1] was found to be 420 nM. In assay [2], this compound registered an inhibition of 58%. As for `COC(=O)C1=C(C)NC(C)=C(C(=O)OC)C1c1ccccc1[N+](=O)[O-]` [NIFEDIPINE], the values for the IC50 in assay [1] and in assay [4] were 6100 nM and 60 nM, respectively. With `CC1=C(C(=O)N2CCN(c3ccc(F)cc3)CC2)C(c2cccc(C#N)c2)n2nccc2N1` (stereo not drawn), the inhibition in assay [2] was 11%. Still for that read-out and setting: the same measure for `CC1=C(C(=O)N2CCN(c3ccc(F)cc3)CC2)C(c2ccco2)n2nccc2N1` (stereo not drawn): 1%. In assay [1], `CC1=C(C(=O)Nc2ccccc2)C(c2ccc(Cl)c(Cl)c2)n2nccc2N1` (stereo not drawn) returned an IC50 of 170 nM. The compound further gave an inhibition in assay [3] of 83%.

`CCCCCNC(=O)C1=C(C)Nc2ccnn2C1c1ccc(Cl)c(Cl)c1` (stereo not drawn) came in with an IC50 in assay [1] of 590 nM. In assay [2], the inhibition came out at 48%. In turn, `CC1=C(C(=O)N2CCN(c3ccc(F)cc3)CC2)C(c2cc(Cl)cc(Cl)c2)n2nccc2N1` (stereo not drawn) displayed a concentration for half-maximal inhibition (IC50) in assay [1] of 140 nM. In addition, the inhibition in assay [2] came out at 62%. In assay [1], `CC1=C(C(=O)N2CCN(c3ccccc3)CC2)C(c2ccc(Cl)c(Cl)c2)n2nccc2N1` (stereo not drawn) yielded an IC50 of 85 nM. The same compound registered an inhibition in assay [3] of 82%.

Take `CC1=C(C(=O)N2CCN(c3ccc(F)cc3)CC2)C(c2ccc(Cl)cc2)n2nccc2N1` (stereo not drawn): the IC50 in assay [1] is 440 nM. The compound also showed an inhibition in assay [2] of 42%. As to `CCN(CC)C(=O)C1=C(C)Nc2ccnn2C1c1ccc(Cl)c(Cl)c1` (stereo not drawn), in assay [1], 440 nM corresponded to half-maximal inhibition (IC50). The inhibition in assay [2] was 61%. Consider `CC1=C(C(=O)N2CCOCC2)C(c2ccc(Cl)c(Cl)c2)n2nccc2N1` (stereo not drawn), for which, in assay [2], the inhibition turned out to be 17%. Take `CC1=C(C(=O)N2CCCC2)C(c2ccc(Cl)c(Cl)c2)n2nccc2N1` (stereo not drawn): the IC50 in assay [1] stood at 660 nM. The inhibition in assay [2] was determined as 67%. As to `CC1=C(C(=O)N2CCN(c3ccc(F)cc3)CC2)C(c2ccccn2)n2nccc2N1` (stereo not drawn), in assay [2], the inhibition was 3%. Take `CC1=C(C(=O)Nc2cccnc2)C(c2ccc(Cl)c(Cl)c2)n2nccc2N1` (stereo not drawn): the inhibition in assay [3] was determined as 9%. In assay [1], `CC1=C(C(=O)N2CCN(c3ccc(F)cc3)CC2)C(c2ccc3ccccc3c2)n2nccc2N1` (stereo not drawn) gave a 50% inhibitory concentration (IC50) of 650 nM. Moreover, the inhibition in assay [2] came out at 39%. Turning to `CCOC(=O)C1=C(C)Nc2ccnn2C1c1cccc(Cl)c1Cl` (stereo not drawn), the IC50 in assay [1] was 1100 nM; in assay [4] it was 9380 nM.

With `CC1=C(C(=O)N2CCN(C3CCCCC3)CC2)C(c2ccc(Cl)c(Cl)c2)n2nccc2N1` (stereo not drawn), the inhibition in assay [2] came out at 17%.

`CCCCNC(=O)C1=C(C)Nc2ccnn2C1c1ccc(Cl)c(Cl)c1` (stereo not drawn): half-maximal inhibition in assay [1] (IC50) was put at 440 nM. This compound came in with an inhibition in assay [2] of 56%.

Broadly, the IC50 is the concentration that inhibits the measured activity by half. What is called inhibition is the change of the read-out against control, counted positive when it falls.
